The source of these data is PMC8405639, “2-Carba-lysophosphatidic acid is a novel β-lysophosphatidic acid analogue with high potential for lysophosphatidic acid receptor activation and autotaxin inhibition” (Scientific Reports, 2021).

Series [1] is described as follows: 2carbaLPA detection in rat plasma after oral 2ccPA capsule. It is filed as in vivo. To be noted: oral gastro-resistant (entero-soluble) capsule of 2ccPA, 0-10 h. An excerpt: Supplementary Figure S5. 2-carba-lysophosphatidic acid (2carbaLPA) produced in rat plasma from rats administered 2-carba-cyclic phosphatidic acid (2ccPA) as a gastro-resistant capsule. Rats were orally administered with 2ccPA containing capsule and 2carbaLPA produced in plasma was detected using liquid chromatography with tandem mass spectrometry (LC-QqQ) and presented as peak area (counts). Data are represented as mean ± standard deviation (n = 5 rat samples).
Preparation of 2ccPA intended to be administered as a gastro-resistant capsule, administration of the prepared 2ccPA in rats, and extraction of lipids from plasma samples were performed as per previously described methods^1. The experimental protocols were approved by the Animal Research Committee of the Saitama Medical University (approval number; 2113). Briefly, each capsule was filled with 19.70 ± 1.39 mg of 2ccPA and enteric-coated. Male 7-week-old Sprague Dawley rats were orally administrated with a single capsule and blood was collected from the jugular vein using a catheter from 0 to 10 h. Plasma was obtained by mixing with EDTA-Na2 (1 mg/mL), and the lipid fraction was extracted by adding acidic methanol, including LPA 17:0 (final concentration: 100 nM; Avanti Polar Lipids) as internal standard. Analysis for detection of 2carbaLPA with LC-QqQ was performed as above.

Series [2] addresses T1, hLPA4 (Homo sapiens, UniProt Q99677).
T1 construct: expressed in transfected cells; host or cells: 293A cells
The experiment in a line: TGFα-shedding assay, LPA4. It is filed as cell-based. To be noted: 293A cells, AP-TGFα release; for pEC50: 1 h, with Ki16425 10 μM; for Emax: read-out: Emax ± SEM hLPA4 (converted). The protocol:
(§1) 293A cells expressing LPA receptors were stimulated with the indicated concentration of LPA, 2carbaLPA, and cPA analogues. Receptor-specific alkaline phosphatase-tagged transforming growth factor-α release was calculated by subtracting the responses in the empty vector-transfected cells from those in the receptor-expressing cells. Data are represented as standard error of the mean of three independent replicates.
(§2) 293A cells (Life Technologies, Tokyo, Japan) were cultured in DMEM (Nissui Pharmaceutical, Tokyo, Japan) supplemented with 10% foetal calf serum (Gibco, Waltham, MA, USA) in an incubator at 37 °C and 5% CO2. This assay was conducted according to a modified version of a method described previously. […] The cells were co-transfected with vectors-expressing human LPA1–6, alkaline phosphatase-tagged TGFα (AP-TGFα). As negative controls, cells transfected with an empty vector instead of the receptor-expressing vector were used. After 24 h, the cells were resuspended in Hank’s balanced salt solution (HBSS), seeded in 96-well plates, and stimulated with cPA analogues administered at tenfold concentration of the final concentration. The cPA analogues were diluted with HBSS, 0.01% protease and fatty acid-free BSA (SERVA Electrophoresis GmbH, Heidelberg, Germany). Cells for LPA4, LPA5, and LPA6 analysis were treated with Ki16425 (final concentration: 10 μM), 5 min before treatment with the cPA analogues. After incubation for 1 h at 37 °C, 80 µL of the supernatant was transferred to fresh 96-well plates. An equal volume of 1 mM p-NPP solution [120 mM Tris–HCl (pH 9.5), 40 mM NaCl, and 10 mM MgCl2] was added to both the supernatant and the cells. Alkaline phosphatase activity was calculated by measuring absorbance at 405 nm using the Cytation 3 plate reader (BioTek, Winooski, VT, USA).

Series [3] has as its target T2, hLPA1 (Homo sapiens, UniProt Q92633).
T2 construct: expressed in transfected cells; host or cells: 293A cells
Put plainly: TGFα-shedding assay, LPA1. It is filed as cell-based. As to conditions: 293A cells, AP-TGFα release; for pEC50: 1 h; for Emax: read-out: Emax ± SEM hLPA1 (converted). As to the method:
Figure 4 Agonistic activity of 2-carba-lysophosphatidic acid (2carbaLPA) and cyclic phosphatidic acid (cPA) analogues toward six lysophosphatidic acid (LPA) receptors. 293A cells expressing LPA receptors were stimulated with the indicated concentration of LPA, 2carbaLPA, and cPA analogues. Receptor-specific alkaline phosphatase-tagged transforming growth factor-α release was calculated by subtracting the responses in the empty vector-transfected cells from those in the receptor-expressing cells. Data are represented as standard error of the mean of three independent replicates.
293A cells (Life Technologies, Tokyo, Japan) were cultured in DMEM (Nissui Pharmaceutical, Tokyo, Japan) supplemented with 10% foetal calf serum (Gibco, Waltham, MA, USA) in an incubator at 37 °C and 5% CO2. This assay was conducted according to a modified version of a method described previously. To improve signal detection, cells for the analysis of LPA1, LPA2, LPA4, and LPA5 were transfected with Gα-chimeric proteins, whereas those for LPA4, LPA5, LPA6 analysis were treated with the LPA1–3 antagonist Ki16425. The cells were co-transfected with vectors-expressing human LPA1–6, alkaline phosphatase-tagged TGFα (AP-TGFα). As negative controls, cells transfected with an empty vector instead of the receptor-expressing vector were used. After 24 h, the cells were resuspended in Hank’s balanced salt solution (HBSS), seeded in 96-well plates, and stimulated with cPA analogues administered at tenfold concentration of the final concentration. The cPA analogues were diluted with HBSS, 0.01% protease and fatty acid-free BSA (SERVA Electrophoresis GmbH, Heidelberg, Germany). Cells for LPA4, LPA5, and LPA6 analysis were treated with Ki16425 (final concentration: 10 μM), 5 min before treatment with the cPA analogues. After incubation for 1 h at 37 °C, 80 µL of the supernatant was transferred to fresh 96-well plates. An equal volume of 1 mM p-NPP solution [120 mM Tris–HCl (pH 9.5), 40 mM NaCl, and 10 mM MgCl2] was added to both the supernatant and the cells. Alkaline phosphatase activity was calculated by measuring absorbance at 405 nm using the Cytation 3 plate reader (BioTek, Winooski, VT, USA).

Series [4] addresses T3, hLPA5 (Homo sapiens, UniProt Q9H1C0).
T3 construct: expressed in transfected cells; host or cells: 293A cells
The experiment in a line: TGFα-shedding assay, LPA5. It is filed as cell-based. To be noted: 293A cells, AP-TGFα release; for pEC50: 1 h, with Ki16425 10 μM; for Emax: read-out: Emax ± SEM hLPA5 (converted). As to the method: as §1, §2

Series [5] concerns the target T4, hLPA6 (Homo sapiens, UniProt P43657).
T4 construct: expressed in transfected cells; host or cells: 293A cells
T4 sequence (P43657 1-344): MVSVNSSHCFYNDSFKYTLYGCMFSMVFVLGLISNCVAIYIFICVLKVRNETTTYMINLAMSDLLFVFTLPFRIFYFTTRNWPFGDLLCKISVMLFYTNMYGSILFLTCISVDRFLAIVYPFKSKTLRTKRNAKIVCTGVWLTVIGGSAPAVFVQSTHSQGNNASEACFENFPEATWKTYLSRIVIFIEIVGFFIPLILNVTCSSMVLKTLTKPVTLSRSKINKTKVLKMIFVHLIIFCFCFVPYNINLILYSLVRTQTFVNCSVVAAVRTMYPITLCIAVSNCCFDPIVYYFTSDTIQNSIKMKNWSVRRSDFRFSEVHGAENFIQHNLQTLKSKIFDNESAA
The experiment in a line: TGFα-shedding assay, LPA6. It is filed as cell-based. To be noted: 293A cells, AP-TGFα release; for pEC50: 1 h; for Emax: read-out: Emax ± SEM hLPA6 (converted). As to the method: as §1, §2

Each structure is given as a SMILES string. pEC50: −log10 of the molar value. Some results are limits rather than exact numbers.

T2 sequence (Q92633 whole entry): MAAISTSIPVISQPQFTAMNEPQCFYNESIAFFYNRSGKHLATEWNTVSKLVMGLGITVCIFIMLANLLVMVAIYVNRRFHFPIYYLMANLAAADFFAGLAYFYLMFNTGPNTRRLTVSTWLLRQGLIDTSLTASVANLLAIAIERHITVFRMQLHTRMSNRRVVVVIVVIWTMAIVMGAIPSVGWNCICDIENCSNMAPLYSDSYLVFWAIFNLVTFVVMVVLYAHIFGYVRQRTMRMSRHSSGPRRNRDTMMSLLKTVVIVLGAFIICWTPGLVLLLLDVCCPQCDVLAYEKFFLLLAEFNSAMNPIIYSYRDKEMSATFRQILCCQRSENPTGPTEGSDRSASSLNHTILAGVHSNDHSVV
T1 sequence (Q99677 whole entry): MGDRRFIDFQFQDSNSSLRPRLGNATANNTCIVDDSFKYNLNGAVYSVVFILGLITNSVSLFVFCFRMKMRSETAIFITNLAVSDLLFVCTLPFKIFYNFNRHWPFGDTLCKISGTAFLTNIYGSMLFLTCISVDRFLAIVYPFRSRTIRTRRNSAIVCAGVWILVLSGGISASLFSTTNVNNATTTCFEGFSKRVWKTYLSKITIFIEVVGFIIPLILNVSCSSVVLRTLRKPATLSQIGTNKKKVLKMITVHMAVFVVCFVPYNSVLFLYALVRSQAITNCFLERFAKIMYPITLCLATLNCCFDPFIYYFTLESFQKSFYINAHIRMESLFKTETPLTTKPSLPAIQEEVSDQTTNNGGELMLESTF
T3 sequence (Q9H1C0 whole entry): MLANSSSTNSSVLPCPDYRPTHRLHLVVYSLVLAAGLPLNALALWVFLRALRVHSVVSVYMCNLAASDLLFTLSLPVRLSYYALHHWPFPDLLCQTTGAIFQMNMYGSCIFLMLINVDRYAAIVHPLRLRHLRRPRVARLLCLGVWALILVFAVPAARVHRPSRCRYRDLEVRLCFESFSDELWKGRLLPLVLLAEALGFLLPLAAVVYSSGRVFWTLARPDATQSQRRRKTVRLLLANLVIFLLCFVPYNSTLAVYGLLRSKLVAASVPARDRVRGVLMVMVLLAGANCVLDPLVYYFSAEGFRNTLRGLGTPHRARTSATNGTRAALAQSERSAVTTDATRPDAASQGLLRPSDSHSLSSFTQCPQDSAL

By pEC50 is commonly meant the negative decadic logarithm of the EC50, by convention in mol/L. Higher therefore signals a low EC50. The Emax is the greatest response seen or fitted, relative to the assay's reference. With `CCCCCCCC/C=C\CCCCCCCC(=O)OCC(CO)CP(=O)(O)O` (centres unmarked) [2carbaLPA 18:1, 2-carba-lysophosphatidic acid], in series [1], the “2carbaLPA in plasma after administration of 2ccPA” value is reported as “detectable”. The pEC50 in series [2] was 9.00; in series [3], 7.26; in series [4], 7.30; in series [5] (with Ki16425 10 μM), 7.04. Moreover, the Emax in series [2] is 24.9%; in series [3], 27%; in series [4], 38.3%; in series [5], 29.3%.

Turning to `CCCCCCCC/C=C\CCCCCCCC(=O)OCC1COP(=O)(O)C1` (centres unmarked) [2ccPA 18:1, 2-carba-cyclic phosphatidic acid], the pEC50 in series [2] was 7.14; in series [3], 6.00; in series [4], 6.01; in series [5] (bound), below 5.52. In addition, the results for the Emax in series [2], in series [3] and in series [4] were 19.6%, 20.6% and 31.7%, respectively.

On to `CCCCCCCC/C=C\CCCCCCCC(=O)OC[C@@H](O)CCP(=O)(O)O` [3carba LPA 18:1, 3-carba-lysophosphatidic acid], for which the pEC50 in series [2] was 8.72; in series [3], 7.96; in series [4] it was 7.05; in series [5] (with Ki16425 10 μM), 6.88. Moreover, the Emax in series [2] is 23.5%; in series [3] it was 26.9%; in series [4], 35.5%; in series [5] it was 27.1%.

Turning to `CCCCCCCC/C=C\CCCCCCCC(=O)OC[C@@H]1CCP(=O)(O)O1` [3ccPA 18:1, 3-carba-cyclic phosphatidic acid], the pEC50 was 7.03 in series [2], 6.43 in series [3], 5.65 in series [4] and below 5.52 in series [5] (bound). The maximal effect (Emax) in series [2] was 23.3%; in series [3], 26.9%; in series [4], 51.2%.

For `CCCCCCCC/C=C\CCCCCCCC(=O)OC[C@@H]1COP(=O)(O)O1` [cPA 18:1, 1-Oleoyl-cPA], the pEC50 in series [2] was 7.48; in series [3], 6.34; in series [4] it was 6.45; in series [5] (bound) it was below 5.52. In addition, the Emax in series [2] is 17.2%; in series [3], 24.1%; in series [4], 35.6%.
